We go through seven compounds from US20130090334A1, “AZABENZOXAZINE DERIVATIVES AS CRAC MODULATORS” (Hoffmann-La Roche Inc, priority 2011, published 2013).

pIC50: −log10 of the molar value.

The subject of assay [1] is human whole blood. Description: Human Whole Blood (HWB) Assay, inhibition of T cell IL-2 production. Format: cell-based. The note with it: IL-2 in plasma, human whole blood stimulated with 10 μM Thapsigargin overnight, AlphaLISA. As to the method:
Human Whole Blood (HWB) Assay
Inhibition of T cell IL-2 production CRAC compounds were tested in human whole blood from normal donors. 200 μl of human whole blood was aliquoted into each well of a round bottom 96 well plate. Concentration-response curves were generated for test compounds and CsA (as controls) by performing serial dilutions of the compounds and incubating each concentration in a single well for 30 min (experiment was performed in triplicate). Following incubation, the blood was stimulated with 10 μM Thapsigargin (SIGMA) overnight at 37° C. IL-2 concentrations in the plasma were determined by AlphaLISA IL-2 assay (Perkin Elmer). Data analysis was performed using GraphPad PRISM5.

In assay [2] the test system is Jurkat cell. The assay is described as follows: Jurkat IL-2 Production Assay. Type of assay: cell-based. The following applies: Homo sapiens, serum condition (1% FBS/PHA or 30% FBS/PMA-ionomycin) not specified. As to the method: Jurkat IL-2 Production Assay
Cell: Jurkat cell (ATCC) was grown in RPMI 1640 with 10% FBS and 1% penicillin/streptomycin. The cell density was kept at 1.2˜18×10^6/mL in culture flask before seeding into culture plate, and the cell density in the plate was 0.5×10^6/200 μL/well.
Culture media: RPMI 1640 with 1% FBS or 30% FBS for high serum assay.
Test compound: serial dilution was done in 100% DMSO, and intermediate dilution was done with RPMI 1640 medium with 1% FBS. The DMSO final concentration in culture well was 0.25%.
Stimulant: PHA (Sigma#L9017-10MG) was used for the assay with 1% F/BS in culture medium, and added after 10 minutes exposure of cell to compound/DMSO. The PHA final concentration in culture well was 5 μg/mL. PMA (Sigma#P-8139 5MG)/Ionomycin (Sigma# I0634-5MG) was used for the assay with 30% FBS in culture medium, and added at same time point as the 1% FBS culture assay. The final concentration of PMA was […], and lonomycin final concentration was 500 ng/mL.
Incubation: at 37° C. with 5% CO2 and 95% humidity for 18 h˜20 h.
IC50: IC50 was calculated with the data analysis software XLfit4, General Pharmacology model 251.

In turn, `Cc1ccc(-c2ncco2)cc1-c1cnc2c(c1)OCC(c1c(F)cccc1F)N2` (stereo not shown) [Example 7, 3-(2,6-Difluoro-phenyl)-7-(2-methyl-5-oxazol-2-yl-phenyl)-3,4-dihydro-2H-pyrido[3,2-b][1,4]oxazine] gave a pIC50 in assay [1] of 5.09. Same read-out and setting: with `CCc1sc(-c2cccnc2)nc1-c1cnc2c(c1)OCC(c1c(F)cccc1F)N2` (stereo not shown) [Example 5, 3-(2,6-Difluoro-phenyl)-7-(5-ethyl-2-pyridin-3-yl-thiazol-4-yl)-3,4-dihydro-2H-pyrido[3,2-b][1,4]oxazine] the figure was 6.25; with `CCn1nc(-c2cnccn2)cc1-c1cnc2c(c1)OCC(c1c(F)cccc1F)N2` (stereo not shown) [Example 3, 3-(2,6-Difluoro-phenyl)-7-(2-ethyl-5-pyrazin-2-yl-2H-pyrazol-3-yl)-3,4-dihydro-2H-pyrido[3,2-b][1,4]oxazine], 5.62. `Cc1sc(-c2ccncc2)nc1-c1cnc2c(c1)OCC(c1c(F)cccc1F)N2` (stereo not shown) [Example 6, 3-(2,6-Difluoro-phenyl)-7-(5-methyl-2-pyridin-4-yl-thiazol-4-yl)-3,4-dihydro-2H-pyrido[3,2-b][1,4]oxazine] had a pIC50 in assay [1] of 5.34.

Take `Cc1sc(-c2ccccn2)nc1-c1cnc2c(c1)OCC(c1c(F)cccc1F)N2` (stereo not shown) [Example 4, 3-(2,6-Difluoro-phenyl)-7-(5-methyl-2-pyridin-2-yl-thiazol-4-yl)-3,4-dihydro-2H-pyrido[3,2-b][1,4]oxazine]: the pIC50 in assay [1] was 5.20.

Compound `CCn1nc(C(F)(F)F)cc1-c1cnc2c(c1)OCC(c1c(F)cccc1F)N2` (stereo not shown) [Example 1, 3-(2,6-Difluoro-phenyl)-7-(2-ethyl-5-trifluoromethyl-2H-pyrazol-3-yl)-3,4-dihydro-2H-pyrido[3,2-b][1,4]oxazine] gave a pIC50 in assay [2] of 6.85. In assay [1], `CCn1nc(-c2cccnc2)cc1-c1cnc2c(c1)OCC(c1c(F)cccc1F)N2` (stereo not shown) [Example 2, 3-(2,6-Difluoro-phenyl)-7-(2-ethyl-5-pyridin-3-yl-2H-pyrazol-3-yl)-3,4-dihydro-2H-pyrido[3,2-b][1,4]oxazine] showed a pIC50 of 5.57.
